Data taken from patent US20240002375A1, “2-(INDAZOL-5-YL)-6-(PIPERIDIN-4-YL)-1,7-NAPHTHYRIDINE DERIVATIVES AND RELATED COMPOUNDS AS MODULATORS FOR SPLICING NUCLEIC ACIDS AND FOR THE TRE” (REMIX THERAPEUTICS INC., priority 2020, published 2024).
pIC50: −log10 of the molar value.

Tests used:
Assay type in all cases: cell-based
[1] = system: HTT mRNA; assay: Splicing assay (RT-qPCR) of HTT mRNA alternative junction (AJ) and canonical junction (CJ); conditions: A673 or K562 cells, 24 hours; for pIC50: decrease in CJ mRNA, read-out: HTT CJ IC50; for AC50: increase in AJ mRNA, read-out: HTT AJ AC50
Experimental: Compounds described herein were used to modulate RNA transcript abundance in cells. The expression of a target mRNA was measured by detecting the formation of an exon-exon junction in the canonical transcript (CJ). A compound mediated exon-inclusion event was detected by observing an increase in formation of a new junction with an alternative exon (AJ). Real-time qPCR assays were used to detect these splicing switches and interrogate the potency of various compounds towards different target genes. A high-throughput real time quantitative PCR (RT-qPCR) assay was developed to measure these two isoforms of the mRNA (CJ and AJ) for an exemplary gene, HTT, together with a control housekeeping gene, GAPDH or GUSB or PPIA, used for normalization. Briefly, the A673 or K562 cell line was treated with various compounds described herein (e.g., compounds of Formula (I) or (II)). After treatment, the levels of the HTT mRNA targets were determined from each sample of cell lysate by cDNA synthesis followed by qPCR.
Materials: • Cells-to-CT 1-step kit: ThermoFisher A25602, Cells-to-CT lysis reagent: ThermoFisher 4391851C, TagMan™ Fast Virus 1-Step Master Mix: ThermoFisher 4444436 • GAPDH: VIC-PL, ThermoFisher 4326317E (Assay: Hs99999905_ml)—used for K562/suspension cell lines • GUSB: VIC-PL, ThermoFisher 4326320E (Assay: Hs99999908 ml)—used for K562/suspension cell lines • PPIA: VIC-PL, ThermoFisher 4326316E (Assay: Hs99999904 ml)—used for A673/adherent cell lines
The A673 cell line was cultured in DMEM with 10% FBS. Cells were diluted with full growth media and plated in a 96-well plate (15,000 cells in 100 ul media per well). The plate was incubated at 37° C. with 5% CO2 for 24 hours to allow cells to adhere. An 11-point 3-fold serial dilution of the compounds was made in DMSO then diluted in media in an intermediate plate. Compounds were transferred from the intermediate plate to the cell plate with the top dose at a final concentration of 10 uM in the well. Final DMSO concentration was kept at or below 0.25%. The cell plate was returned to the incubator at 37° C. with 5% CO2 for an additional 24 hours.
The K562 cell line was cultured in IMDM with 10% FBS. For K562, cells were diluted with full growth media and plated in either a 96-well plate (50,000 cells in 50 uL media per well) or a 384-well plate (8,000-40,000 cells in 45 uL media per well). An 11-point 3-fold serial dilution of the compounds were made in DMSO then diluted in media in an intermediate plate. Compound was transferred from the intermediate plate to the cell plate with the top dose at a final concentration of 10 uM in the well. Final DMSO concentration was kept at or below 0.25%. Final volume was 100 uL for 96-well plate and 50 uL for 384-well plate. The cell plate was then placed in an incubator at 37° C. with 5% CO2 for 24 hours.
The cells were then gently washed with 50 uL-100 uL cold PBS before proceeding to addition of lysis buffer. 30 uL-50 uL of room temperature lysis buffer with DNAse I (and optionally RNAsin) was added to each well. Cells were shaken/mixed thoroughly at room temperature for 5-10 minutes for lysis to take place and then 3 uL-5 uL of room temperature stop solution was added and wells were shaken/mixed again. After 2-5 minutes, the cell lysate plate was transferred to ice for RT-qPCR reaction setup. The lysates could also be frozen at −80° C. for later use.
In some cases, a direct lysis buffer was used. An appropriate volume of 3X lysis buffer (10 mM Tris, 150 mM NaCl, 1.5%-2.5% Igepal and 0.1-1 U/uL RNAsin, pH 7.4) was directly added to either K562 or A673 cells in media and mixed by pipetting 3 times. The plates were then incubated at room temperature with shaking/rocking for 20-50 minutes to allow for lysis to take place. After this time, the cell lysate plate was transferred to ice to set up for the RT-qPCR reactions. The lysates could also be frozen at −80° C. for later use. […]

[2] = system: HTT CJ mRNA; assay: Gene panel canonical junction qPCR splicing assay, HTT; conditions: Table 4, read-out: HTT IC50 (decrease in CJ mRNA levels)
Experimental: (§1) Compounds described herein were used to modulate RNA transcript abundance in cells. The expression of a target mRNA was measured by detecting the formation of an exon-exon junction in the canonical transcript (CJ). A compound mediated exon-inclusion event was detected by observing an increase in formation of a new junction with an alternative exon (AJ). Real-time qPCR assays were used to detect these splicing switches and interrogate the potency of various compounds towards different target genes. A high-throughput real time quantitative PCR (RT-qPCR) assay was developed to measure these two isoforms of the mRNA (CJ and AJ) for an exemplary gene, HTT, together with a control housekeeping gene, GAPDH or GUSB or PPIA, used for normalization. Briefly, the A673 or K562 cell line was treated with various compounds described herein (e.g., compounds of Formula (I) or (II)). After treatment, the levels of the HTT mRNA targets were determined from each sample of cell lysate by cDNA synthesis followed by qPCR. The data analysis was performed by first determining the ΔCt vs the housekeeper gene. This ΔCt was then normalized against the DMSO control (ΔΔCt) and converted to RQ (relative quantification) using the 2^(−ΔΔCt) equation. The RQ were then converted to a percentage response by arbitrarily setting an assay window of 3.5 ΔCt for HTT-CJ and an assay window of 9 ΔCt for HTT-AJ. […] The percentage response was then fitted to the 4 parametric logistic equation to evaluate the concentration dependence of compound treatment. The increase in AJ mRNA is reported as AC50 (compound concentration having 50% response in AJ increase) while the decrease in CJ mRNA levels is reported as IC50 (compound concentration having 50% response in CJ decrease). Additional studies were carried out for a larger panel of genes using the protocol provided above. The junction between flanking upstream and downstream exons was used to design canonical junction qPCR assays. At least one of the forward primer, reverse primer or the CY5-labeled 5′ nuclease probe (with 3′ quencher such as ZEN/Iowa Black FQ) was designed to overlap with the exon junction to capture the CJ mRNA transcript. BLAST was used to confirm the specificity of the probeset and parameters such as melting temperature, GC content, amplicon size, and primer dimer formation are considered during their design. Data for the decrease in CJ mRNA levels for three exemplary genes (HTT, SMN2, and Target C) analyzed in this panel are reported as IC50 (compound concentration having 50% response in CJ decrease).

[3] = system: SMN2 CJ mRNA; assay: Gene panel canonical junction qPCR splicing assay, SMN2; conditions: Table 4, read-out: SMN2 IC50 (decrease in CJ mRNA levels)
Experimental: as §1

[4] = system: Target C CJ mRNA; assay: Gene panel canonical junction qPCR splicing assay, Target C; conditions: Table 4, read-out: Target C IC50 (decrease in CJ mRNA levels)
Experimental: as §1

pIC50 [1] | pIC50 [2] | pIC50 [3] | pIC50 [4] | SMILES | AC50 [1] [nM]
> 7.00 | > 7.00 | > 7.00 | > 7.00 | Cn1cc2cc(-c3ccc4nc(C5CCNCC5)ccc4n3)c(O)cc2n1 [Compound 100, 2-methyl-5-[6-(piperidin-4-yl)-1,5-naphthyridin-2-yl]indazol-6-ol] | 100 to 1000
> 7.00 | > 7.00 | > 7.00 | > 7.00 | Cc1c(O)c(-c2ccc3nc(C4CCNCC4)ccc3n2)cc2cn(C)nc12 [Compound 101, 2,7-dimethyl-5-[6-(piperidin-4-yl)-1,5-naphthyridin-2-yl]indazol-6-ol] | < 100
> 7.00 | > 7.00 | > 7.00 | > 7.00 | Cn1cc2cc(-c3ccc4nc(C5CCNCC5)ccc4n3)c(O)c(F)c2n1 [Compound 102, 7-fluoro-2-methyl-5-[6-(piperidin-4-yl)-1,5-naphthyridin-2-yl]indazol-6-ol] | < 100
6.00 to 7.00 | 6.00 to 7.00 | < 5.00 | 5.00 to 6.00 | Cc1cn2nc(-c3ccc4nc(C5CCNCC5)ccc4n3)c(O)cc2n1 [Compound 103, 2-methyl-6-[6-(piperidin-4-yl)-1,5-naphthyridin-2-yl]imidazo[1,2-b]pyridazin-7-ol] | 100 to 1000
< 5.00 | < 5.00 | 5.00 to 6.00 | 5.00 to 6.00 | Cn1cc2c(O)c(-c3ccc4nc(C5CCNCC5)ccc4n3)ccc2n1 [Compound 105, 2-methyl-5-[6-(piperidin-4-yl)-1,5-naphthyridin-2-yl]indazol-4-ol] | > 10000
5.00 to 6.00 | 5.00 to 6.00 | 6.00 to 7.00 | 5.00 to 6.00 | Cn1cc2c(O)c(-c3cc4ccc(C5CCNCC5)nc4cn3)ccc2n1 [Compound 106, 2-methyl-5-[2-(piperidin-4-yl)-1,7-naphthyridin-6-yl]indazol-4-ol] | 1000 to 10000
6.00 to 7.00 | 6.00 to 7.00 | > 7.00 | 5.00 to 6.00 | Cn1cc2cc(-c3ncc4nc(C5CCNCC5)ccc4n3)c(O)cc2n1 [Compound 107, 2-methyl-5-[6-(piperidin-4-yl)pyrido[3,2-d]pyrimidin-2-yl]indazol-6-ol] | 100 to 1000
5.00 to 6.00 | 5.00 to 6.00 | > 7.00 | 5.00 to 6.00 | Cn1cc2c(O)c(-c3ncc4nc(C5CCNCC5)ccc4n3)ccc2n1 [Compound 108, 2-methyl-5-[6-(piperidin-4-yl)pyrido[3,2-d]pyrimidin-2-yl]indazol-4-ol] | 1000 to 10000

Continued, compound first:

SMILES | pIC50 [1] | pIC50 [2] | pIC50 [3] | pIC50 [4] | AC50 [1] [nM]
Cc1nc2cc(O)c(-c3ccc4nc(N5CC[C@@H](NC6(C)CC6)C5)ccc4n3)cc2o1 (single isomer, unassigned) [Compound 258, 2-methyl-6-(6-{3-[(1-methylcyclopropyl)amino]pyrrolidin-1-yl}-1,5-naphthyridin-2-yl)-1,3-benzoxazol-5-ol] | > 7.00 | > 7.00 | > 7.00 | 6.00 to 7.00 | < 100
Cc1c(O)c(-c2ccc3nc(N4CC[C@@H](NC5CC5)C4)ccc3n2)cc2cn(C)nc12 (single isomer, unassigned) [Compound 259] | > 7.00 | > 7.00 | > 7.00 | > 7.00 | < 100
Cc1c(O)c(-c2ccc3nc(N4CC[C@H](NC5CC5)C4)ccc3n2)cc2cn(C)nc12 (single isomer, unassigned) [Compound 260] | > 7.00 | > 7.00 | > 7.00 | > 7.00 | < 100
Cn1cc2cc(-c3ccc4nc(N5CC[C@H](NC6COC6)C5)ccc4n3)c(O)cc2n1 (stereo in doubt) [Compound 189] | 5.00 to 6.00 | 5.00 to 6.00 | > 7.00 | 5.00 to 6.00 | 100 to 1000
Cn1cc2cc(-c3ccc4nc(N5CC[C@@H](NCC(F)(F)F)C5)ccc4n3)c(O)cc2n1 (stereo in doubt) [Compound 245] | < 5.00 | < 5.00 | 5.00 to 6.00 | < 5.00 | > 10000
Cn1cc2cc(-c3ccc4cc(C5CCNCC5)ccc4n3)c(O)cc2n1 [Compound 109, 2-methyl-5-[6-(piperidin-4-yl)quinolin-2-yl]indazol-6-ol] | > 7.00 | > 7.00 | > 7.00 | 6.00 to 7.00 | 100 to 1000
CN(C(=O)Nc1cn[nH]c1)c1cc2nc(N3CCNCC3)ccc2cn1 [Compound 110, 1-methyl-1-[2-(piperazin-1-yl)-1,6-naphthyridin-7-yl]-3-(1H-pyrazol-4-yl)urea] |  | < 5.00 | < 5.00 | > 7.00 | > 10000
O=C(Nc1cn[nH]c1)Nc1cc2nc(N3CCNCC3)ccc2cn1 [Compound 111, 1-[2-(piperazin-1-yl)-1,6-naphthyridin-7-yl]-3-(1H-pyrazol-4-yl)urea] | < 5.00 | < 5.00 | < 5.00 | < 5.00 | > 10000
O=C(NCc1ccn[nH]1)Nc1cc2nc(N3CCNCC3)ccc2cn1 [Compound 112, 1-[2-(piperazin-1-yl)-1,6-naphthyridin-7-yl]-3-(2H-pyrazol-3-ylmethyl)urea] | < 5.00 | < 5.00 | < 5.00 | < 5.00 | > 10000
